Assay results as given in patent publication US11578069B2, “Compounds for inhibition of α4 β7 integrin” (Gilead Sciences, Inc., priority 2019, dated 2023).

Legend:
[1] = target: T1, α4β7 integrin (Homo sapiens, UniProt P13612+P26010); experiment: α4β7 Integrin Cell Capture Assay; type: cell-based; conditions: capture of α4β7 integrin expressing RPM18866 cells on MadCAM-1 extracellular domain-coated plate
T1 construct: monitoring the capture of α4β7 integrin expressing cells; endogenous in cells; host or cells: RPMI8866
T1 sequence (P13612 34-1032): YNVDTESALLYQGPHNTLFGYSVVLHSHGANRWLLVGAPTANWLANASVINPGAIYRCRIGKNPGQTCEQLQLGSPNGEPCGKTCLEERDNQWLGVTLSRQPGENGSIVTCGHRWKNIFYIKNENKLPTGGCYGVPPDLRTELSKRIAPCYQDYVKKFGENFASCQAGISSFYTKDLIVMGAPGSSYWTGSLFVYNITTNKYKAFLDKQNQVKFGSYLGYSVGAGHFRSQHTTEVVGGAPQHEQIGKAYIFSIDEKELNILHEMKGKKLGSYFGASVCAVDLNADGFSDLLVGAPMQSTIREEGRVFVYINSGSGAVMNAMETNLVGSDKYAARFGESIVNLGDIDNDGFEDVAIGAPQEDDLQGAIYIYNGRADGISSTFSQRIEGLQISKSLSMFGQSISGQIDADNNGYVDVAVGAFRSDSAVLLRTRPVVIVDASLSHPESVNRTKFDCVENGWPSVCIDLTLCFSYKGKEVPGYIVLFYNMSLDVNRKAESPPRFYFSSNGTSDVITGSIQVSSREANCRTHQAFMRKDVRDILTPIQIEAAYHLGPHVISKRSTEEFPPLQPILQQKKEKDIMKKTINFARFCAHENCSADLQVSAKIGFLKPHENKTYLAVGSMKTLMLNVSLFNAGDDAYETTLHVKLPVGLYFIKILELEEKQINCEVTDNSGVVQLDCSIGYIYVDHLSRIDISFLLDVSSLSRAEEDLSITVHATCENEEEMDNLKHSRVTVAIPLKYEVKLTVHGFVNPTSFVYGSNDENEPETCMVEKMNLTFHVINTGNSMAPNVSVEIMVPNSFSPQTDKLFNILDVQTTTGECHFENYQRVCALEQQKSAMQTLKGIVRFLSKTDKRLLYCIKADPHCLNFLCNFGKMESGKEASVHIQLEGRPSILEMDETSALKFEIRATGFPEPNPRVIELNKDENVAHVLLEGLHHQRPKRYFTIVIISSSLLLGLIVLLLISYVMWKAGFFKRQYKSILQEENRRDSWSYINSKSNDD
T1 sequence (P26010 20-798): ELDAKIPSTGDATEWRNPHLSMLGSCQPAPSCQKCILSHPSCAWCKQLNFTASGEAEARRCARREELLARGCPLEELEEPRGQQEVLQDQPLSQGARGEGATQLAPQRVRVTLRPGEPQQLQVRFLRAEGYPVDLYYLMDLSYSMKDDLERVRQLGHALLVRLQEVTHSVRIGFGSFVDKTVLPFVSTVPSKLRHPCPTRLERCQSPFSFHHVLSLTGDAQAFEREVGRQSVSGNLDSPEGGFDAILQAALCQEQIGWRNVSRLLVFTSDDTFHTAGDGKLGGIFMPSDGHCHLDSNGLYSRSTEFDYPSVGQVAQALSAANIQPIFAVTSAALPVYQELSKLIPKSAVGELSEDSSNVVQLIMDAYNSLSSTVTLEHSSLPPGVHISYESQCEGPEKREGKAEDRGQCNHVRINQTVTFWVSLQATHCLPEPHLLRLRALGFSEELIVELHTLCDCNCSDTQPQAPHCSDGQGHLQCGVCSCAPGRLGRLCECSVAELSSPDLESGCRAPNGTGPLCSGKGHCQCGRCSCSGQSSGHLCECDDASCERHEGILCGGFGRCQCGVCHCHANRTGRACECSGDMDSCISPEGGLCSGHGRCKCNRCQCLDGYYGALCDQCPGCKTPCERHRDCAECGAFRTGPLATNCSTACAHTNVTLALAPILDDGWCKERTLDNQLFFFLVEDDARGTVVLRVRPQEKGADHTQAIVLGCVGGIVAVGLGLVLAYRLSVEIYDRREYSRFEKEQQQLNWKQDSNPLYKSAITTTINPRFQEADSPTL
Experimental: The potency of inhibitors in preventing α4β7 integrin interaction with MadCAM-1 was measured by monitoring the capture of α4β7 integrin expressing cells on a recombinant MadCAM-1 extracellular domain-coated plate.
384-well plates (Corning 3702) were coated with MadCAM-1 extracellular domain by dispensing 20 μL of MAdCAM-1 at 1.0 μg/mL per well and incubating overnight at 4° C. The plates were then washed with PBS and blocked with 3% BSA for 2 hours before being washed again.
(§1) RPM18866 cells were spun down and re-suspended in assay medium (DMEM+0.5% FBS+0.5 mM MnCl2) at a density of 0.5×10^6 cells/mL. The cells were then dispensed (60 μL/well) to a 384-well plate (Greiner 781280) that was previously spotted with 60 nL of test compound per well. The plates were incubated at 37° C. for 1 hour. 50 μL of cells were transferred to the blocked, MadCAM-1-coated plates and incubated for 30 minutes at 37° C. 10 μL of 12% glutaraldehyde containing Hoechst 33342 (0.06 mg/mL) was added to the cells (2% glutaraldehyde and 0.01 mg/mL final concentrations). The plates were incubated for 90 minutes at room temperature. The plates were then washed 3 times with 70 μL of PBS per well and imaged on a Cellomics ArrayScan instrument. The cells that were bound to the plate were counted and plotted against the compound concentration to determine the EC50 of the test compounds.

[2] = target: T2, α4β1 integrin (Homo sapiens, UniProt P05556+P13612); experiment: α4β1 Cell Capture Assay; type: cell-based; conditions: capture of α4β1 expressing Jurkat cells on VCAM-1 extracellular domain-coated plate
T2 construct: monitoring the capture of α4β1 expressing cells; endogenous in cells; host or cells: Jurkat
T2 sequence (P05556 21-798, one chain of several): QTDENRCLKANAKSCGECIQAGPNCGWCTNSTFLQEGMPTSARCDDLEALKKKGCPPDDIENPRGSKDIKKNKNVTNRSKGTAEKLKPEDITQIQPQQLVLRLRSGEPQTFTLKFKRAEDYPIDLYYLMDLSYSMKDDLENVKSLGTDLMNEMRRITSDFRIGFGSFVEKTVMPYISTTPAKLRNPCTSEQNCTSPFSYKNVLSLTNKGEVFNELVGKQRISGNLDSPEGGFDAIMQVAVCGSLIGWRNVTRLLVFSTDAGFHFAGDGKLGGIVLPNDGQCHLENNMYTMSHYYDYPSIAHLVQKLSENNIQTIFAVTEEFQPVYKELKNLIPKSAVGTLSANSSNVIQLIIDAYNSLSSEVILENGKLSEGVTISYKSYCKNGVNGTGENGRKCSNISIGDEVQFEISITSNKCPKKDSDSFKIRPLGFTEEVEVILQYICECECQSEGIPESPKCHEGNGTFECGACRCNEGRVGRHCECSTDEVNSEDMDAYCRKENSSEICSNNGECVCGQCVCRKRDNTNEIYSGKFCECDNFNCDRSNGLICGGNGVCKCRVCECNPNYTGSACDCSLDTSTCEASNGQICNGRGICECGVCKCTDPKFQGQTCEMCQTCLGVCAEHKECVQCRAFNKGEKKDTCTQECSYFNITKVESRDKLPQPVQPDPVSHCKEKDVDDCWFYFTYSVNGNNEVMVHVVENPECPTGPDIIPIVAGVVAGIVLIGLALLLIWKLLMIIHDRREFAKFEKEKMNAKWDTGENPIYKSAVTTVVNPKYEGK
Experimental: The potency of inhibitors in preventing α4β1 integrin interaction with VCAM-1 was measured by monitoring the capture of α4β1 expressing cells to a recombinant VCAM-1 extracellular domain-coated plate.
384-well plates (Corning 3702) were coated with VCAM-1 extracellular domain by dispensing 20 μL of VCAM-1 at 0.5 μg/ml per well and incubating overnight at 4° C. The plates were then washed with PBS and blocked with 3% BSA for 2 hours before being washed again.
as §1, with “Jurkat cells” for “RPM18866 cells”, “0.5×10^6 cells/ml.” for “0.5×10^6 cells/mL.”, “blocked, VCAM-1-coated” for “blocked, MadCAM-1-coated”, “10 μl” for “10 μL”, “0.01 mg/ml Hoechst 33342” for “0.01 mg/mL”

| Compound | EC50 ([1]; Table 1) [nM] | EC50 ([2]; Table 1) [nM] | EC50 ([1]; Table 2) [nM] | EC50 ([2]; Table 2) [nM] |
| --- | --- | --- | --- | --- |
| Cn1c(=O)n(-c2ccc(C[C@H](NC(=O)c3c(F)cc(N4CCOC[C@@H]4C(F)(F)F)cc3F)C(=O)O)cn2)c(=O)c2ccncc21 [Example 13, (S)-2-(2,6-difluoro-4-((R)-3-(trifluoromethyl)morpholino)benzamido)-3-(6-(1-methyl-2,4-dioxo-1,4-dihydropyrido[3,4-d]pyrimidin-3(2H)-yl)pyridin-3-yl)propanoic acid] | 0.8 | 38.9 | – | – |
| Cc1cc(N2CCOC[C@@H]2C(F)(F)F)cc(F)c1C(=O)N[C@@H](Cc1ccc(-n2c(=O)c3ccncc3n(C)c2=O)nc1)C(=O)O [Example 15, (S)-2-(2-fluoro-6-methyl-4-((R)-3-(trifluoromethyl)morpholino)benzamido)-3-(6-(1-methyl-2,4-dioxo-1,4-dihydropyrido[3,4-d]pyrimidin-3(2H)-yl)pyridin-3-yl)propanoic acid] | 0.21 | 10.6 | – | – |
| CC[C@@H](Nc1cc(F)c(C(=O)N[C@@H](Cc2ccc(-n3c(=O)c4ccncc4n(C)c3=O)nc2)C(=O)O)c(F)c1F)C(F)(F)F [Example 17, (S)-3-(6-(1-methyl-2,4-dioxo-1,4-dihydropyrido[3,4-d]pyrimidin-3(2H)-yl)pyridin-3-yl)-2-(2,3,6-trifluoro-4-(((R)-1,1,1-trifluorobutan-2-yl)amino)benzamido)propanoic acid] | 0.7 | 58.9 | – | – |
| CC[C@@H](N(c1cc(F)c(C(=O)N[C@@H](Cc2ccc(-n3c(=O)c4ccncc4n(C)c3=O)nc2)C(=O)O)c(F)c1)C1CC1)C(F)(F)F [Example 19, (S)-2-(4-(cyclopropyl((R)-1,1,1-trifluorobutan-2-yl)amino)-2,6-difluorobenzamido)-3-(6-(1-methyl-2,4-dioxo-1,4-dihydropyrido[3,4-d]pyrimidin-3(2H)-yl)pyridin-3-yl)propanoic acid] | 2 | 127 | – | – |
| Cc1cc(N2CCOC[C@@H]2C(F)(F)F)cc(F)c1C(=O)N[C@@H](Cc1ccc(-n2c(=O)c3ccncc3n(C)c2=O)cn1)C(=O)O [Example 23, (S)-2-(2-fluoro-6-methyl-4-((R)-3-(trifluoromethyl)morpholino)benzamido)-3-(5-(1-methyl-2,4-dioxo-1,4-dihydropyrido[3,4-d]pyrimidin-3(2H)-yl)pyridin-2-yl)propanoic acid] | 0.2 | 9.8 | – | – |
| Cc1cc(N2CCOC[C@@H]2C(F)(F)F)cc(F)c1C(=O)N[C@@H](Cc1ccc(-n2c(=O)c3ccncc3n(C)c2=O)cc1)C(=O)O [Example 25, (S)-2-(2-fluoro-6-methyl-4-((R)-3-(trifluoromethyl)morpholino)benzamido)-3-(4-(1-methyl-2,4-dioxo-1,4-dihydropyrido[3,4-d]pyrimidin-3(2H)-yl)phenyl)propanoic acid] | 0.1 | 3.4 | – | – |
| COc1cc(C[C@H](NC(=O)c2c(C)cc(N3CCOC[C@@H]3C(F)(F)F)cc2F)C(=O)O)ccc1-n1c(=O)c2ccncc2n(C)c1=O [Example 27, (S)-2-(2-fluoro-6-methyl-4-((R)-3-(trifluoromethyl)morpholino)benzamido)-3-(3-methoxy-4-(1-methyl-2,4-dioxo-1,4-dihydropyrido[3,4-d]pyrimidin-3(2H)-yl)phenyl)propanoic acid] | 0.1 | 8.6 | – | – |
| CCOCc1cc(OC)c(-c2ccc(C[C@H](NC(=O)c3c(F)cc(N[C@H](c4ccccc4)C(F)(F)F)cc3F)C(=O)O)cc2)c(OC)c1 [Example 28] | – | – | 7.2 | 70.7 |
| Cc1cc(C[C@H](NC(=O)c2c(F)cc(N3CCOC[C@@H]3C(F)(F)F)cc2F)C(=O)O)ccc1-c1c(C(F)(F)F)cc(C)n(C)c1=O [Example 29] | – | – | 0.6 | 29 |
| COc1cc(C)n(C)c(=O)c1-c1ccc(C[C@H](NC(=O)c2c(F)cc(N3CCOC[C@@H]3C(F)(F)F)cc2F)C(=O)O)cc1 [Example 30] | – | – | 0.5 | 10.1 |
| Cc1cc(C[C@H](NC(=O)c2c(C)cc(N3CCOC[C@@H]3C(F)(F)F)cc2F)C(=O)O)ccc1-c1c(C)n(C)c(=O)n(C)c1=O [Example 31] | – | – | 0.2 | 11.6 |
| CC[C@@H](Nc1cc(F)c(C(=O)N[C@@H](Cc2ccc(-c3c(C)n(C)c(=O)n(C)c3=O)cc2)C(=O)O)c(F)c1)C(F)(F)F [Example 32] | – | – | 1.2 | 14.4 |
| CC[C@@H](Nc1cc(F)c(C(=O)N[C@@H](Cc2ccc(-n3c(=O)c4cc(N(C)C)ccc4n(C)c3=O)cc2)C(=O)O)c(F)c1)C(F)(F)F [Example 33] | – | – | 2.5 | 105 |
| CC[C@@H](Nc1cc(F)c(C(=O)N[C@@H](Cc2ccc(-c3c(C)c4cc(F)ccc4n(C)c3=O)cc2)C(=O)O)c(F)c1)C(F)(F)F [Example 34] | – | – | 3.2 | 61.4 |
| Cn1c(=O)c(-c2ccc(C[C@H](NC(=O)c3c(F)cc(N4CCOC[C@@H]4C(F)(F)F)cc3F)C(=O)O)cc2)cc2cnccc21 [Example 35] | – | – | 1.1 | 34.1 |
| CN(C)c1ccc2c(c1)c(=O)n(-c1ccc(C[C@H](NC(=O)c3c(F)cc(N4CCOC[C@@H]4C(F)(F)F)cc3F)C(=O)O)cc1)c(=O)n2C [Example 36] | – | – | 1.2 | 27.3 |
